Results published in patent publication US20230064292A1, “METHODS OF TREATING PSMA-POSITIVE CANCER USING RADIONUCLIDE THERAPY” (priority 2020, published 2023).

Columns and labels:
[1] = tested on: PSMA-expressing PC3-PIP cells; test: Cellular uptake and internalization in PSMA-expressing PC3-PIP cells; format: cell-based
Excerpt: The PSMA binding scaffold of PSMA binds irreversibly to the extracellular enzymatic domain of PSMA leading to rapid internalization by PSMA-expressing cancer cells. Tumor cell uptake of CTT1403 is ˜84% after just 2½ hours (FIG. 1), compared to less than 40% tumor cell uptake of ^177Lu-PSMA-617 (structure shown below), in PSMA-expressing PC3-PIP cells.
Given that 99% of cell bound CTT1403 is internalized, compared to just 15% of ^177Lu-PSMA-617, targeting by CTT1403 is expected to confer a significant therapeutic advantage. This greater uptake will allow treatment of smaller tumors for a longer time. Both irreversible binding and cellular internalization increases exposure of target tissue to the therapeutic agent. Greater accumulation in the target tissue will permit a lower efficacious dose and/or dosing frequency, thus reducing a patient's total clinical exposure to the radionuclide and improving the therapeutic index.

[2] = Kidney dosimetry by SPECT/CT or SPECT/MRI in patients; format: in vivo, human
Excerpt: CTT1403 localization in various organs is accomplished by estimating dosimetry using SPECT/CT or SPECT/MRI imaging of the radioisotope component (using the gamma particle emission) of CTT1403, ^177Lu, up to 8 days after the first dose. […] Preclinical studies in rats with CTT1403 identified the kidneys as the dose limiting organ. Table 2, below, summarizes kidney dosimetry calculated from the first 15 patients enrolled in the study after receipt of escalating doses of CTT1403 and contrasts it with the predicted kidney exposure from rat studies. […] Preclinical studies in rats estimated expected kidney exposure of ˜5.2 Gy/GBq. […] CTT1403 may be sequestered in tumors and under exposing the kidney.

[3] = patient 1, injected activity 0.73 GBq (19.6 mCi)
[4] = patient 2, injected activity 1.50 GBq (40.5 mCi)
[5] = patient 3, injected activity 2.03 GBq (54.8 mCi)
[6] = patient 4, injected activity 3.00 GBq (81.1 mCi)
[7] = patient 5, injected activity 2.95 GBq (79.8 mCi)
[8] = patient 6, injected activity 2.98 GBq (80.5 mCi)
[9] = patient 7, injected activity 4.48 GBq (121.1 mCi)
[10] = patient 8, injected activity 4.52 GBq (122.2 mCi)
[11] = patient 9, injected activity 3.53 GBq (95.5 mCi)
[12] = patient 10, injected activity 4.48 GBq (121.2 mCi)
[13] = patient 11, injected activity 5.66 GBq (153.0 mCi)
[14] = patient 12, injected activity 5.99 GBq (162.0 mCi)
[15] = patient 13, injected activity 5.99 GBq (162.0 mCi)
[16] = patient 14, injected activity 7.98 GBq (215.7 mCi)
[17] = patient 15, injected activity 7.77 GBq (210.0 mCi)

Compound: O=C(O)CC[C@H](NP(=O)(O)OCCC[C@H](NC(=O)CC[C@H](NC(=O)CCCCCNC(=O)CCC(NC(=O)CCOCCOCCOCCOCCNC(=O)CCC(=O)N1Cc2ccccc2-c2c(nnn2CCCNC(=O)CN2CCN3CCN4CCN(CC2)CC(=O)[O][177Lu]([O]C(=O)C3)[O]C(=O)C4)-c2ccccc21)C(=O)NC(CCCCNC(=O)CCCc1ccc(I)cc1)C(=O)O)C(=O)O)C(=O)O)C(=O)O (stereo partly drawn) [CTT1403]
- cell bound agent that is internalized ([1]; PSMA-expressing PC3-PIP cells): 99%
- Tumor cell uptake ([1]; after 2½ hours, PSMA-expressing PC3-PIP cells (FIG. 1)): ~84%
- Kidney dose, Dose Gy/GBq ([2]; CTT1403 (7.5 GBq +/− 10%)): 0.689 Gy/GBq
- Kidney dose, Mean Dose (Gy) ([2]; CTT1403 (7.5 GBq +/− 10%)): 4.895 Gy
- Kidney dosimetry calculated from the first 15 patients ([2]; first 15 patients enrolled, escalating doses): 0.687 Gy/GBq
- factor by which clinical kidney dosimetry is lower than predicted by rat studies ([2]; first 15 patients vs rat prediction): ~10
- absorbed dose (Gy) - L. kidney [2, 3]: 0.441 Gy
- absorbed dose (Gy) - R. kidney [2, 3]: 0.430 Gy
- absorbed dose per GBq (Gy/GBq) - L. kidney [2, 3]: 0.608 Gy/GBq
- absorbed dose per GBq (Gy/GBq) - R. kidney [2, 3]: 0.593 Gy/GBq
- absorbed dose (Gy) - L. kidney [2, 4]: 0.915 Gy
- absorbed dose (Gy) - R. kidney [2, 4]: 0.876 Gy
- absorbed dose per GBq (Gy/GBq) - L. kidney [2, 4]: 0.610 Gy/GBq
- absorbed dose per GBq (Gy/GBq) - R. kidney [2, 4]: 0.584 Gy/GBq
- absorbed dose (Gy) - L. kidney [2, 5]: 1.54 Gy
- absorbed dose (Gy) - R. kidney [2, 5]: 2.07 Gy
- absorbed dose per GBq (Gy/GBq) - L. kidney [2, 5]: 0.757 Gy/GBq
- absorbed dose per GBq (Gy/GBq) - R. kidney [2, 5]: 1.020 Gy/GBq
- absorbed dose (Gy) - L. kidney [2, 6]: 1.97 Gy
- absorbed dose (Gy) - R. kidney [2, 6]: 1.70 Gy
- absorbed dose per GBq (Gy/GBq) - L. kidney [2, 6]: 0.655 Gy/GBq
- absorbed dose per GBq (Gy/GBq) - R. kidney [2, 6]: 0.565 Gy/GBq
- absorbed dose (Gy) - L. kidney [2, 7]: 4.41 Gy
- absorbed dose (Gy) - R. kidney [2, 7]: 4.84 Gy
- absorbed dose per GBq (Gy/GBq) - L. kidney [2, 7]: 1.494 Gy/GBq
- absorbed dose per GBq (Gy/GBq) - R. kidney [2, 7]: 1.638 Gy/GBq
- absorbed dose (Gy) - L. kidney [2, 8]: 2.75 Gy
- absorbed dose (Gy) - R. kidney [2, 8]: 2.65 Gy
- absorbed dose per GBq (Gy/GBq) - L. kidney [2, 8]: 0.922 Gy/GBq
- absorbed dose per GBq (Gy/GBq) - R. kidney [2, 8]: 0.889 Gy/GBq
- absorbed dose (Gy) - L. kidney [2, 9]: 2.54 Gy
- absorbed dose (Gy) - R. kidney [2, 9]: 2.83 Gy
- absorbed dose per GBq (Gy/GBq) - L. kidney [2, 9]: 0.567 Gy/GBq
- absorbed dose per GBq (Gy/GBq) - R. kidney [2, 9]: 0.632 Gy/GBq
- absorbed dose (Gy) - L. kidney [2, 10]: 3.45 Gy
- absorbed dose (Gy) - R. kidney [2, 10]: 3.54 Gy
- absorbed dose per GBq (Gy/GBq) - L. kidney [2, 10]: 0.764 Gy/GBq
- absorbed dose per GBq (Gy/GBq) - R. kidney [2, 10]: 0.784 Gy/GBq
- absorbed dose (Gy) - L. kidney [2, 11]: 1.71 Gy
- absorbed dose (Gy) - R. kidney [2, 11]: 1.85 Gy
- absorbed dose per GBq (Gy/GBq) - L. kidney [2, 11]: 0.484 Gy/GBq
- absorbed dose per GBq (Gy/GBq) - R. kidney [2, 11]: 0.522 Gy/GBq
- absorbed dose (Gy) - L. kidney [2, 12]: 2.26 Gy
- absorbed dose (Gy) - R. kidney [2, 12]: 2.75 Gy
- absorbed dose per GBq (Gy/GBq) - L. kidney [2, 12]: 0.505 Gy/GBq
- absorbed dose per GBq (Gy/GBq) - R. kidney [2, 12]: 0.612 Gy/GBq
- absorbed dose (Gy) - L. kidney [2, 13]: 3.32 Gy
- absorbed dose (Gy) - R. kidney [2, 13]: 3.08 Gy
- absorbed dose per GBq (Gy/GBq) - L. kidney [2, 13]: 0.587 Gy/GBq
- absorbed dose per GBq (Gy/GBq) - R. kidney [2, 13]: 0.543 Gy/GBq
- absorbed dose (Gy) - L. kidney [2, 14]: 3.15 Gy
- absorbed dose (Gy) - R. kidney [2, 14]: 2.81 Gy
- absorbed dose per GBq (Gy/GBq) - L. kidney [2, 14]: 0.525 Gy/GBq
- absorbed dose per GBq (Gy/GBq) - R. kidney [2, 14]: 0.469 Gy/GBq
- absorbed dose (Gy) - L. kidney [2, 15]: 2.65 Gy
- absorbed dose (Gy) - R. kidney [2, 15]: 2.50 Gy
- absorbed dose per GBq (Gy/GBq) - L. kidney [2, 15]: 0.443 Gy/GBq
- absorbed dose per GBq (Gy/GBq) - R. kidney [2, 15]: 0.417 Gy/GBq
- absorbed dose (Gy) - L. kidney [2, 16]: 5.53 Gy
- absorbed dose (Gy) - R. kidney [2, 16]: 5.41 Gy
- absorbed dose per GBq (Gy/GBq) - L. kidney [2, 16]: 0.693 Gy/GBq
- absorbed dose per GBq (Gy/GBq) - R. kidney [2, 16]: 0.678 Gy/GBq
- absorbed dose (Gy) - L. kidney [2, 17]: 4.89 Gy
- absorbed dose (Gy) - R. kidney [2, 17]: 3.75 Gy
- absorbed dose per GBq (Gy/GBq) - L. kidney [2, 17]: 0.629 Gy/GBq
- absorbed dose per GBq (Gy/GBq) - R. kidney [2, 17]: 0.482 Gy/GBq
